Laboratory results published in ChEMBL document CHEMBL3132769, “Fragment growing to retain or alter the selectivity of anchored kinase hinge-binding fragments” (Medchemcomm, 2014).

What was measured:
[1] = biological target: Tyrosine-protein kinase Fer (Homo sapiens) (UniProt P16591); test: Inhibition of human FER catalytic domain expressed in baculovirus assessed as substrate phosphorylation using fluorescence-labelled peptides as substrate at 420 uM after 90 mins by microfluidic peptide phosphorylation assay
[2] = biological target: Rho-associated protein kinase 2 (Homo sapiens) (UniProt O75116); test: Inhibition of human ROCK2 catalytic domain expressed in baculovirus assessed as substrate phosphorylation using fluorescence-labelled peptides as substrate at 0.2 uM after 90 mins by microfluidic peptide phosphorylation assay
[3] = biological target: Protein kinase C beta type (Homo sapiens) (UniProt P05771); test: Inhibition of human truncated PKC beta1 expressed in baculovirus assessed as substrate phosphorylation using fluorescence-labelled peptides as substrate at 0.2 uM after 90 mins by microfluidic peptide phosphorylation assay
[4] = biological target: T1, Serine/threonine-protein kinase Sgk1 (Homo sapiens) (UniProt O00141); test: Inhibition of human truncated SGK1 expressed in baculovirus assessed as substrate phosphorylation using fluorescence-labelled peptides as substrate at 0.2 uM after 90 mins by microfluidic peptide phosphorylation assay
T1 sequence (whole entry): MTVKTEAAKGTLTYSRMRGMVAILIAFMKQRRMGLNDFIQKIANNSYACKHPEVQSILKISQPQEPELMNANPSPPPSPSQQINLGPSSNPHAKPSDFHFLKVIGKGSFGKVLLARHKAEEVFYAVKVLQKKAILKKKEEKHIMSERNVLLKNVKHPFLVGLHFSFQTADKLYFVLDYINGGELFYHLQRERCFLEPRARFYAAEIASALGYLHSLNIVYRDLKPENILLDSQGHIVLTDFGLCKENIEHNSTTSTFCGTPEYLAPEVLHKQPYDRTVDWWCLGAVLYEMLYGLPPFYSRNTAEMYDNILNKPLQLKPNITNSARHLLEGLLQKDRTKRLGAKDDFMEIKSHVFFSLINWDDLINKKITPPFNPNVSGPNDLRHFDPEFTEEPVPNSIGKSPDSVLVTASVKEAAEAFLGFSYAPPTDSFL

[5] = biological target: Hepatocyte growth factor receptor (Homo sapiens) (UniProt P08581); test: Inhibition of human MET cytoplasmic domain expressed in baculovirus assessed as substrate phosphorylation using fluorescence-labelled peptides as substrate at 0.2 uM after 90 mins by microfluidic peptide phosphorylation assay
[6] = biological target: Rho-associated protein kinase 2 (Homo sapiens) (UniProt O75116); conditions: 0.1 uM
Description: Inhibition of human ROCK2 catalytic domain expressed in baculovirus assessed as substrate phosphorylation using fluorescence-labelled peptides as substrate at 0.1 uM after 90 mins by microfluidic peptide phosphorylation assay

[7] = biological target: RAC-alpha serine/threonine-protein kinase (Homo sapiens) (UniProt P31749); test: Inhibition of human AKT1 catalytic domain expressed in baculovirus assessed as substrate phosphorylation using fluorescence-labelled peptides as substrate at 9 uM after 90 mins by microfluidic peptide phosphorylation assay
[8] = biological target: MAP kinase p38 (Homo sapiens) (UniProt O15264+Q15759+Q16539+P53778); test: Inhibition of human full length p38 beta2 expressed in Escherichia coli cell assessed as substrate phosphorylation using fluorescence-labelled peptides as substrate at 70 uM after 90 mins by microfluidic peptide phosphorylation assay
[9] = biological target: T2, Cytoplasmic tyrosine-protein kinase BMX (Homo sapiens) (UniProt P51813); test: Inhibition of human full length BMX expressed in baculovirus assessed as substrate phosphorylation using fluorescence-labelled peptides as substrate at 70 uM after 90 mins by microfluidic peptide phosphorylation assay
T2 sequence (whole entry): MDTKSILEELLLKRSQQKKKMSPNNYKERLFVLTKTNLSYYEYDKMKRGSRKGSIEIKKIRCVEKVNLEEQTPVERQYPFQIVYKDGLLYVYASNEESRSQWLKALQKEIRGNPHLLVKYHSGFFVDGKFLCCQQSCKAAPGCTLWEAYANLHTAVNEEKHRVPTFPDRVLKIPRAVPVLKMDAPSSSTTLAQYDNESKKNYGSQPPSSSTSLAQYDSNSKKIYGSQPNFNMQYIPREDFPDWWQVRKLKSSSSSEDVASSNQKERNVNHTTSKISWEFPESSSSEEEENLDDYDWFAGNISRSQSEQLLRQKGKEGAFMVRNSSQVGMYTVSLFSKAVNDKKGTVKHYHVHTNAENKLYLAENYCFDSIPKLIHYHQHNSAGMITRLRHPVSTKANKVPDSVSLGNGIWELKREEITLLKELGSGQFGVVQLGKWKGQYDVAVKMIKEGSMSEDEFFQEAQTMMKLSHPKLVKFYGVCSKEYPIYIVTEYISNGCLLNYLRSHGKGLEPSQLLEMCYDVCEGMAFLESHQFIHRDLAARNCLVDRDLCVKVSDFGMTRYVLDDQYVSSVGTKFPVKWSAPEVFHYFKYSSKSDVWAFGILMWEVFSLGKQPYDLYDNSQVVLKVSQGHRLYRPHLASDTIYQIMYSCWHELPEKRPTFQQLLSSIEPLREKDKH

[10] = biological target: Mitogen-activated protein kinase 3 (Homo sapiens) (UniProt P27361); test: Inhibition of human full length ERK1 expressed in Escherichia coli cell assessed as substrate phosphorylation using fluorescence-labelled peptides as substrate at 8 uM after 90 mins by microfluidic peptide phosphorylation assay
[11] = system: Tyrosine-protein kinase ABL1 (Homo sapiens), P00519 [H396P]; test: Inhibition of human truncated ABL H396P mutant expressed in baculovirus assessed as substrate phosphorylation using fluorescence-labelled peptides as substrate at 1000 uM after 90 mins by microfluidic peptide phosphorylation assay
[12] = biological target: Mitogen-activated protein kinase 1 (Homo sapiens) (UniProt P28482); test: Inhibition of human full length ERK2 expressed in Escherichia coli cell assessed as substrate phosphorylation using fluorescence-labelled peptides as substrate at 2 uM after 90 mins by microfluidic peptide phosphorylation assay
Chain of Mitogen-activated protein kinase 1 (Homo sapiens) (P28482 whole entry): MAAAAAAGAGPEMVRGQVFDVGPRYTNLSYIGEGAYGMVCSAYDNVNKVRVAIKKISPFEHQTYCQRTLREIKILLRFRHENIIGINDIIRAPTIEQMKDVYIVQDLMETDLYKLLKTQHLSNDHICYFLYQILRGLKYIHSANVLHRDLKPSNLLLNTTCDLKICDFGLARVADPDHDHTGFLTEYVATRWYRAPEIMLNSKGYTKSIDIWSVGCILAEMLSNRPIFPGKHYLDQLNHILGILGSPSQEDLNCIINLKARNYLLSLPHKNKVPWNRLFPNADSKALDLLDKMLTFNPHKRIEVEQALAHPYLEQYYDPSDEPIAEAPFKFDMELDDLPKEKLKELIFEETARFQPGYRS

Chain of Rho-associated protein kinase 2 (Homo sapiens) (O75116 whole entry, looked up, the tested form may be a part): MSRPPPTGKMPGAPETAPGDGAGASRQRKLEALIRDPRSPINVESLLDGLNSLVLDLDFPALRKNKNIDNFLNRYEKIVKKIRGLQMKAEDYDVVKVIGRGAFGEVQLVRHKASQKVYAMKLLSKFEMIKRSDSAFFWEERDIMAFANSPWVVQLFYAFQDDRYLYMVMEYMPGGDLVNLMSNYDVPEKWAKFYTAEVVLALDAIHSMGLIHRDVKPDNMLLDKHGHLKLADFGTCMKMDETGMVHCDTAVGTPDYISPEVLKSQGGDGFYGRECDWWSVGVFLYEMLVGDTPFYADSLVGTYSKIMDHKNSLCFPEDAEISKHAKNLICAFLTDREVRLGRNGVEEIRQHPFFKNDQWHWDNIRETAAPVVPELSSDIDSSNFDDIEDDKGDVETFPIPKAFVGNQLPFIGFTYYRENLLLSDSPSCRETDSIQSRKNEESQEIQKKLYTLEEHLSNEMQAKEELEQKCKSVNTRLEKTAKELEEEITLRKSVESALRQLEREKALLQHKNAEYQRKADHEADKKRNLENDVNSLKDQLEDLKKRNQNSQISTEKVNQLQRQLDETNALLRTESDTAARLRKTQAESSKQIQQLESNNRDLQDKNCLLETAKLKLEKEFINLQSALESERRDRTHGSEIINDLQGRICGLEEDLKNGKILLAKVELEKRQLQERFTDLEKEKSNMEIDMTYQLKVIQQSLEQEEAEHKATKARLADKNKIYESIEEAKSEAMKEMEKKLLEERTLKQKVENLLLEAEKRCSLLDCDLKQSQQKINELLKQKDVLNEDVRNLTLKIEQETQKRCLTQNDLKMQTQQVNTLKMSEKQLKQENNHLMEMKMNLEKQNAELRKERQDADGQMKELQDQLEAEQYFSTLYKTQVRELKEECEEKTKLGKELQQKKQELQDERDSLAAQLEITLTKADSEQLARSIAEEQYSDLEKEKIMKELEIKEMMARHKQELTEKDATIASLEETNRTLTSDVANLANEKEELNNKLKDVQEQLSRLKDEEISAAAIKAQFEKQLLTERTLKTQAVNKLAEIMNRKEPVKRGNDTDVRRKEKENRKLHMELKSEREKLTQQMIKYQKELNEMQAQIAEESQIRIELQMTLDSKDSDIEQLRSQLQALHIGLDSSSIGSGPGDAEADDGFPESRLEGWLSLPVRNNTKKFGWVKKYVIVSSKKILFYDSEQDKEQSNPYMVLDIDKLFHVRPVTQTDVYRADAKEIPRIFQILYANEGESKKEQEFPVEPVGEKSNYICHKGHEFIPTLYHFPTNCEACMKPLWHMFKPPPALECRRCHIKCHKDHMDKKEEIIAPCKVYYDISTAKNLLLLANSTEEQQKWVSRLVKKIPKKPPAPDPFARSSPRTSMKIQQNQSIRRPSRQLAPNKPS
Chain of Mitogen-activated protein kinase 3 (Homo sapiens) (P27361 whole entry, the tested form may be a part): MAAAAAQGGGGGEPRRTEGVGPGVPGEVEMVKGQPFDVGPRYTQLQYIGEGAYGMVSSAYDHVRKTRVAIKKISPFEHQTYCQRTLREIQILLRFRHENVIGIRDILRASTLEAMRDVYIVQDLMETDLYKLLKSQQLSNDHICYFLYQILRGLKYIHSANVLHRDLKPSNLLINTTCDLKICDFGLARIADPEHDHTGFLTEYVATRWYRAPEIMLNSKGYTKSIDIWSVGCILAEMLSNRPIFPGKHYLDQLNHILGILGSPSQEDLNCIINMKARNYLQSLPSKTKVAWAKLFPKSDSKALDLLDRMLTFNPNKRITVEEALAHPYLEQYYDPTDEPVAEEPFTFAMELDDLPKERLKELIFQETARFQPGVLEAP
Chain of Protein kinase C beta type (Homo sapiens) (P05771 2-671 limits assumed): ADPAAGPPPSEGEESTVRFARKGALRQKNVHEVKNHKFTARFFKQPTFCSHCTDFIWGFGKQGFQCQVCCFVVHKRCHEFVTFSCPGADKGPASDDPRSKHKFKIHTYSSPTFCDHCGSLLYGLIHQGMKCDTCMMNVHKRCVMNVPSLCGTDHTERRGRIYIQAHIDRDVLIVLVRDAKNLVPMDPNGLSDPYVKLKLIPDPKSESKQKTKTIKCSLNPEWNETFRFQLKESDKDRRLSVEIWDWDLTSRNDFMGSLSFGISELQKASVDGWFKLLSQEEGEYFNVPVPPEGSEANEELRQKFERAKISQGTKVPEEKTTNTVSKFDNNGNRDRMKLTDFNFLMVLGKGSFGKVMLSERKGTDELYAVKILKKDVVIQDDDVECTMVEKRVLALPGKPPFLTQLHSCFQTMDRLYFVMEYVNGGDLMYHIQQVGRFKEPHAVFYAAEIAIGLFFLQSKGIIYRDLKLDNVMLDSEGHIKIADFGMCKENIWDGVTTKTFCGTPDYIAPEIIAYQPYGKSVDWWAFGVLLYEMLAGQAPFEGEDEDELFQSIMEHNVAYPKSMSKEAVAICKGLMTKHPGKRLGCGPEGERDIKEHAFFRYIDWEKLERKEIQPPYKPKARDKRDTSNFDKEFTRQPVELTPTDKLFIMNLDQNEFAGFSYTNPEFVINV
Chain of Tyrosine-protein kinase Fer (Homo sapiens) (P16591 whole entry, looked up, the tested form may be a part): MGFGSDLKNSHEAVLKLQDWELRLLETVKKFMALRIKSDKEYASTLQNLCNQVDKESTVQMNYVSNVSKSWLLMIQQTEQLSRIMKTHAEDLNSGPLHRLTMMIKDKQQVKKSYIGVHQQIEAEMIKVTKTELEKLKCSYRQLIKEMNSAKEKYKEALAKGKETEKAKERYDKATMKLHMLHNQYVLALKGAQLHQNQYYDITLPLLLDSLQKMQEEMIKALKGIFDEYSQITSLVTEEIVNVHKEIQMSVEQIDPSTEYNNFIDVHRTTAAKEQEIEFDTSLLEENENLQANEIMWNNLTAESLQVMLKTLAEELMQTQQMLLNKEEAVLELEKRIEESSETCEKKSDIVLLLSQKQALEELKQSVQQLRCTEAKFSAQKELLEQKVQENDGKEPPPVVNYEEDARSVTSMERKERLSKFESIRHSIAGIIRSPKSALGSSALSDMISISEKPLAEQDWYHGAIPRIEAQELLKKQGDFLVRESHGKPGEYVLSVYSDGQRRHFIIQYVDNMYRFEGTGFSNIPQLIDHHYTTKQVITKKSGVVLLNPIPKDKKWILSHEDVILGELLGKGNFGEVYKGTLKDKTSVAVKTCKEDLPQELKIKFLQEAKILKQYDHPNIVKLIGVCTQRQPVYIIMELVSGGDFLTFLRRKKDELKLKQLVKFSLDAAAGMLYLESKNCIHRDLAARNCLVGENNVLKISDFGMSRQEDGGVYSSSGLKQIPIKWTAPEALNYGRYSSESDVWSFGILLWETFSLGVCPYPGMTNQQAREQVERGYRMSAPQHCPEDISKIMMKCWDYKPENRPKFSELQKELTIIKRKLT
Chain of RAC-alpha serine/threonine-protein kinase (Homo sapiens) (P31749 whole entry, the tested form may be a part): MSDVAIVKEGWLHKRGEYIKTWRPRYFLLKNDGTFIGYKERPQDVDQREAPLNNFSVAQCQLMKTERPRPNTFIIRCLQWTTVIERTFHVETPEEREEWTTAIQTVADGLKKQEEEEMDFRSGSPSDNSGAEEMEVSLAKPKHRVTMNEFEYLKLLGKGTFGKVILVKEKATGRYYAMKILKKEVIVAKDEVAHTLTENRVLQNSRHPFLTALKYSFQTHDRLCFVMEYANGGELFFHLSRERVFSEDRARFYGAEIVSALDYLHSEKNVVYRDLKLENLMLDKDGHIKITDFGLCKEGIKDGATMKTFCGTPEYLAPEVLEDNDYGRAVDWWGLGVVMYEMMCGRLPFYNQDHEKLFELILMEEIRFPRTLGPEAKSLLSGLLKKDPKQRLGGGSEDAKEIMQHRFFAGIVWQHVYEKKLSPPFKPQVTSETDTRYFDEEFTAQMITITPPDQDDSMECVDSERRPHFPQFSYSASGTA

Question: Which inhibition [1] does the source give for c1nc(N2CCOCC2)c2nc[nH]c2n1 here?
Answer: 70.5%

Question: What does the source list for Clc1ccc(C2(c3ccc(-c4ncnc5[nH]cnc45)cc3)CCNCC2)cc1?
Answer: inhibition [2]: 97%; inhibition [3]: 53%; inhibition [4]: 33%; inhibition [5]: 9.5%

Question: How did the inhibition [6] turn out when C[C@H](CN(C)C)Oc1nc(Nc2cc3cccc(Cl)c3cn2)cnc1C#N was run?
Answer: 0%

Question: NCC1CN(c2ncnc3[nH]c4cnccc4c23)CCO1 (configuration not stated) was tested. Which inhibition [7] did it give?
Answer: 52%

Question: What does the source list for CNCc1ccc(-c2ncnc3[nH]cnc23)cc1?
Answer: inhibition [8]: 1.5%; inhibition [9]: 0%

Question: How did the inhibition [10] turn out when NCC1CCN(c2ncnc3[nH]ccc23)CC1 was run?
Answer: 8.5%

Question: How did the inhibition [11] turn out when c1cnc2[nH]ccc2c1 was run?
Answer: 44.5%

Question: Which inhibition [12] does the source give for NC1CCN(c2ncnc3[nH]ccc23)CC1 here?
Answer: 2.5%
